In US20210401931A1, “METHODS AND MATERIALS FOR TREATING CANCER” (Mayo Foundation for Medical Education and Research, priority 2018, published 2021):
“Also recorded” adds a separate entry of the source.

T1: retinoblastoma protein RB (endogenous) (human, UniProt P06400 2-928)
T1 construct: Endogenous protein of cell lysates, phosphorylation state as in the cells; also called RB1; endogenous RB
T1 sequence (looked up): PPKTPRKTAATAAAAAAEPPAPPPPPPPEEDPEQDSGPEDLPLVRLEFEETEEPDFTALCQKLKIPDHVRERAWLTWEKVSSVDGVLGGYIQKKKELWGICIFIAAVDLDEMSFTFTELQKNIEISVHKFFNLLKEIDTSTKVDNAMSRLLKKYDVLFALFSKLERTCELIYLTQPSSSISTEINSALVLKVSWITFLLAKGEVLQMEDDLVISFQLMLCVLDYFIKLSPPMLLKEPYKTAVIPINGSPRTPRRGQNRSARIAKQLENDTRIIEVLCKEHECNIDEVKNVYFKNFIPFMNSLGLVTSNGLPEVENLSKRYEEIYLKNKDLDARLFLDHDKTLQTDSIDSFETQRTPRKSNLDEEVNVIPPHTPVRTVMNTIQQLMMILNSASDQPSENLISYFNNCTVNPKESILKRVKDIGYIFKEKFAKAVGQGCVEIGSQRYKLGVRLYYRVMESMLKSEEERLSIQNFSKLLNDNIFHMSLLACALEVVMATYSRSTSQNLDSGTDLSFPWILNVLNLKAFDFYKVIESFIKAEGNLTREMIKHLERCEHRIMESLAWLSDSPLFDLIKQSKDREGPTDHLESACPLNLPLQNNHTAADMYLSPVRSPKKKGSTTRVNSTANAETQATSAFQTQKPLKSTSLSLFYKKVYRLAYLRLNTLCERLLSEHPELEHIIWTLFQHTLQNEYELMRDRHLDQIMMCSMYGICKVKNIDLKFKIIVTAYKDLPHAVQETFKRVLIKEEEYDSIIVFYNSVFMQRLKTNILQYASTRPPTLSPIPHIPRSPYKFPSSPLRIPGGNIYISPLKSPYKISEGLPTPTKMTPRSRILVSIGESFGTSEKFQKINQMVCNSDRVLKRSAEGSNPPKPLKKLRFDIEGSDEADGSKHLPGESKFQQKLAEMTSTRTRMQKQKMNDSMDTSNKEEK

B1: RelB (other, human, UniProt Q01201 1-579, looked up)
chain: MLRSGPASGPSVPTGRAMPSRRVARPPAAPELGALGSPDLSSLSLAVSRSTDELEIIDEYIKENGFGLDGGQPGPGEGLPRLVSRGAASLSTVTLGPVAPPATPPPWGCPLGRLVSPAPGPGPQPHLVITEQPKQRGMRFRYECEGRSAGSILGESSTEASKTLPAIELRDCGGLREVEVTACLVWKDWPHRVHPHSLVGKDCTDGICRVRLRPHVSPRHSFNNLGIQCVRKKEIEAAIERKIQLGIDPYNAGSLKNHQEVDMNVVRICFQASYRDQQGQMRRMDPVLSEPVYDKKSTNTSELRICRINKESGPCTGGEELYLLCDKVQKEDISVVFSRASWEGRADFSQADVHRQIAIVFKTPPYEDLEIVEPVTVNVFLQRLTDGVCSEPLPFTYLPRDHDSYGVDKKRKRGMPDVLGELNSSDPHGIESKRRKKKPAILDHFLPNHGSGPFLPPSALLPDPDFFSGTVSLPGLEPPGGPDLLDDGFAYDPTAPTLFTMLDLLPPAPPHASAVVCSGGAGAVVGETPGPEPLTLDSYQAPGPGDGGTASLVGSNMFPNHYREAAFGGGLLSPGPEAT
B2: p52 (other, human, UniProt Q00653 1-454, looked up)
chain: MESCYNPGLDGIIEYDDFKLNSSIVEPKEPAPETADGPYLVIVEQPKQRGFRFRYGCEGPSHGGLPGASSEKGRKTYPTVKICNYEGPAKIEVDLVTHSDPPRAHAHSLVGKQCSELGICAVSVGPKDMTAQFNNLGVLHVTKKNMMGTMIQKLQRQRLRSRPQGLTEAEQRELEQEAKELKKVMDLSIVRLRFSAFLRASDGSFSLPLKPVISQPIHDSKSPGASNLKISRMDKTAGSVRGGDEVYLLCDKVQKDDIEVRFYEDDENGWQAFGDFSPTDVHKQYAIVFRTPPYHKMKIERPVTVFLQLKRKRGGDVSDSKQFTYYPLVEDKEEVQRKRRKALPTFSQPFGGGSHMGGGSGGAAGGYGGAGGGGSLGFFPSSLAYSPYQSGAGPMGCYPGGGGGAQMAATVPSRDSGEEAAEPSAPSRTPQCEPQAPEMLQRAREYNARLFGLA
B3: c-Rel (other, human, UniProt Q04864 2-619, looked up)
chain: ASGAYNPYIEIIEQPRQRGMRFRYKCEGRSAGSIPGEHSTDNNRTYPSIQIMNYYGKGKVRITLVTKNDPYKPHPHDLVGKDCRDGYYEAEFGQERRPLFFQNLGIRCVKKKEVKEAIITRIKAGINPFNVPEKQLNDIEDCDLNVVRLCFQVFLPDEHGNLTTALPPVVSNPIYDNRAPNTAELRICRVNKNCGSVRGGDEIFLLCDKVQKDDIEVRFVLNDWEAKGIFSQADVHRQVAIVFKTPPYCKAITEPVTVKMQLRRPSDQEVSESMDFRYLPDEKDTYGNKAKKQKTTLLFQKLCQDHVETGFRHVDQDGLELLTSGDPPTLASQSAGITVNFPERPRPGLLGSIGEGRYFKKEPNLFSHDAVVREMPTGVSSQAESYYPSPGPISSGLSHHASMAPLPSSSWSSVAHPTPRSGNTNPLSSFSTRTLPSNSQGIPPFLRIPVGNDLNASNACIYNNADDIVGMEASSMPSADLYGISDPNMLSNCSVNMMTTSSDSMGETDNPRLLSMNLENPSCNSVLDPRDLRQLHQMSSSSMSAGANSNTTVFVSQSDAFEGSDFSCADNSMINESGPSNSTNPNSHGFVQDSQYSGIGSMQNEQLSDSFPYEFFQV

Columns and labels:
[1] = tested on: PD-L1 mRNA; assay: PD-L1 mRNA expression by RT-qPCR in PC-3 cells treated with chemicals; assay type: cell-based, human; conditions: 24 hours; for PD-L1 mRNA expression: RT-qPCR; for palbociclib-induced elevation of PD-L1: co-treatment with palbociclib
Protocol: FIGS. 1A-K. RB suppresses PD-L1 mRNA expression. (A) PC-3 cell were treated with indicated chemicals for 24 hours. Cells were harvested for RT-qPCR. All data were shown as mean values±SD (n=3). * P<0.05, ** P<0.01, *** P<0.001. (B) PC-3 cells were infected with lentivirus expressing control or CDK4 and CDK6-specific shRNAS. 72 hours after infection, cells were harvested for RT-qPCR. All data were shown as mean values±SD (n=3). *** P<0.001. (C-F) PC-3 cells were infected with lentivirus expressing control or RB1-specific shRNAs. 48 hours after infection, PD-L1 protein levels were determined by western blotting (C), RT-qPCR (D), FACS (E), and IFC (F). All data were shown as mean values±SD (n=3). * P<0.05, ** P<0.01, *** P<0.001. (G) PD-L1 mRNA levels were determined by RT-qPCR in SKO and DKO mouse prostate tumor cells. All data were shown as mean values±SD (n=3). * P<0.05, ** P<0.01, *** P<0.001. (H-J) SKO (H), DKO (I), and Rb^−/−PrE (J) cells were treated with palbociclib for 24 hours. Cells were harvested for RT-qPCR. All data were shown as mean values±SD (n=3). * P<0.05, ** P<0.01, *** P<0.001. (K) The putative copy-number calls for RB1 were determined using GISTC 2.0, and the mRNA expression for CD274(PD-L1) was measured by log 2(RPKM), here RPKM stands for Reads Per Kilobase of transcript per Million mapped reads. […] The nonparametric Mann-Whitney U test was used for the statistical test.
FIGS. 8A-D. (A) PC-3, MIA PaCa-2, H1299, SK-Hep1, and PTEN-CaP8 cells were treated with different doses of palbociclib for 24 hours. Cells were harvested for RT-qPCR. All data were shown as mean values±SD (n=3). * P<0.05, ** P<0.01. (B) PC-3 cell were treated with indicated chemicals for 24 hours. Cells were harvested for RT-qPCR. All data were shown as mean values±SD (n=3). Ns, not significant, * P<0.05, ** P<0.01. (C, D) PC-3 cells were infected with lentivirus expressing control shRNA or RB1-specific shRNA. 24 hours after puromycin selection, cells were treated with or without Helenalin (2 μM) for 24 hours. Cells were harvested for western blotting analysis (C) and RT-qPCR (D). All data were shown as mean values±SD (n=3). Ns, not significant, *** P<0.001.
FIGS. 13A-F. (A, B) PC-3 cells were treated with or without gamma irradiation (IR) (12 Gy). 24 hours post treatment, cells were treated with or without Helenalin (2 μM). 24 hours after treatment, cells were harvested for western blotting analysis (A) and RT-qPCR analysis (B). All data were shown as mean values±SD (n=3). “ns”=not significant, *** P<0.001. (C) PTEN-CaP8 cells were infected with lentivirus expression Tsin control or Tsin-RL S249D/T252D peptide. 72 hours post infection, cell were harvested for western blotting analysis. (D, E) PTEN-CaP8 cells were infected with lentivirus expression Tsin control or Tsin-RL S249D/T252D peptide. 72 hours post infection, cells were treated with or without gamma irradiation (12 Gy) for 48 hours. Cells were harvested for MTS assay (D) and RT-qPCR (E). All data were shown as mean values±SD (n=3). “ns”=not significant, ** P<0.01; *** P<0.001. (F) Schematic diagram depicting the treatment plan for mice bearing subcutaneous PTEN-CaP8 tumors.
Total RNA was isolated using TRIzol reagent (Thermo Fisher Scientific). The NanoDrop 2000 spectrophotometer (Thermo Fisher Scientific) was used to assess RNA yield and quality. RNA was reversely transcribed using Superscript reverse transcriptase (Thermo Fisher Scientific) following manufacturer's instructions. Quantitative real-time PCR was performed by mixing cDNA, gene-specific primers, and IQ SYRB Green Supermix and detected by iCycler QTX detection system (Bio-Rad). The 2-ΔCt method was used to quantitate fold changes by normalizing to GAPDH. Primers for RT-qPCR are provided Table 4.

[2] = target: T1, retinoblastoma protein RB (endogenous); assay: co-IP of endogenous proteins in PC-3 cells (FIGS. 2A and 18A)

Molecule	PD-L1 mRNA expression ([1]; PC-3 cells)	binding result [2]	other results
Cc1sc2c(c1C)C(c1ccc(Cl)cc1)=N[C@@H](CC(=O)OC(C)(C)C)c1nnc(C)n1-2 [JQ1]	dramatic downregulation		
CN1CC[C@H](c2c(O)cc(O)c3c(=O)cc(-c4ccccc4Cl)oc23)[C@H](O)C1 [flavopiridol]	dramatic downregulation		palbociclib-induced elevation of PD-L1 ([1]; PC-3 cells): completely abolished
C=C1C(=O)O[C@@H]2C[C@@H](C)[C@@H]3C=CC(=O)[C@@]3(C)[C@@H](O)[C@H]12 [helenalin]	decreased		RB knockdown-induced PD-L1 upregulation ([1]; PC-3 cells with RB1 shRNA, Helenalin 2 μM): completely blocked; also recorded: inhibited; gamma irradiation-induced PD-L1 expression ([1]; PC-3 cells, 12 Gy, Helenalin 2 μM): abrogated; palbociclib-induced elevation of PD-L1 ([1]; PC-3 cells): completely abolished
CC[C@H](CO)Nc1nc(NCc2ccccc2)c2ncn(C(C)C)c2n1 [roscovitine]	dramatic downregulation		
B1		no binding	
B2		no binding	
B3		no binding	
